Measurements reported in patent publication US6451850B1, “Bio-chemical germanium complexes with high therapeutic efficiency and wide application spectrum” (priority 2001, dated 2002).
Values joined by “and” are separate entries in the source; they are usually repeats but may differ in a detail not shown here. Identical values can stand only once.

Legend:
[1] = Antiinflammatory effect, formalin paw edema (method by Ju. Strel'nikov); format: in vivo; conditions: white mice, into the stomach, dose equimolecular to 20 mg/kg of indometacin, two hours before formalin
From the text: Strel'nikov. […] Simultaneously antiinflammatory activity of indometacin was studied for comparison.

[2] = tested on: virus of herpes simplex (VHS) of the 2-nd antigenic type; test: Experimental herpes genitalis of male guinea pigs, treatment with Virolex or its OGC complex; format: in vivo; conditions: for Duration of the Disease: treatment begun 48 hours after infecting
From the text: VIRUSES. The virus of herpes simplex (VHS) of the 2-nd antigenic type was implied in this work. Clinical symptoms of experimental herpes genitalis were registered daily before carrying out of treatment and were followed during the course of the disease.
The following parameters were used as criteria of infectious process danger: square and specific damage rate—presence of an edema, hyperemia, orchitis. Maximum distinction of each symptom made up 4 points. The present symptoms allow to buildup a scale and to express the course of the disease for each group under investigation from beginning of appearance of the first symptoms of the disease up to full disappearance of these. In this case index of therapeutic effect (ITE) is expressed with the following formula: [formula]
Treatment was began 48 hours after infecting when symptoms of the disease were distinct enough.
The first group included animals infected with VHS-2 and not subjected to treatment with any medicament.
The second group included animals infected with VHS-2 and subjected to treatment with 5 mg of Virolex once a day.
The third group included animals infected with VHS-2 and subjected to treatment with 5 mg of Virolex complex with OGC once a day.

[3] = guinea pigs infected with VHS-2, 5 mg once a day

Structure (SMILES)	reduction of the edema compared to the control group [1]	convalescent earlier than in the second group (Virolex) ([2]; 5 mg once a day)	day of convalescence after infecting ([2]; 5 mg once a day)	Duration of the Disease [2, 3]	toxic effect on infected animals compared to pure Virolex ([2]; infected guinea pigs)	Total Index of Symptoms Distinction [2, 3]	Index of Therapeutic Effect (ITE) ([2]; guinea pigs infected with VHS-2, 5 mg once a day, versus control group)
COc1ccc2c(c1)c(CC(=O)O)c(C)n2C(=O)c1ccc(Cl)cc1 [Indometacin]	33.4%						
Nc1nc2c(ncn2COCCO)c(=O)[nH]1.[OH][Ge]12[O]CCN(CC[O]1)CC[O]2 [Virolex OGC (R = OH), complex of 1-hydroxy-1-germa-2,8,9-trioxy-5-azatricyclo[3.3.3.0^1,5]undecane with Virolex]		4.9 days	sixth	6,2 ± 1,8 Days	decreased its toxic effect		
Nc1nc2c(ncn2COCCO)c(=O)[nH]1 [Virolex, reference compound]				11,1 ± 2,01 Days		21 Points and 31,0 Points	58%
